According to patent US7635716B2, “Substituted cyclopentanes or cyclopentanones as therapeutic agents” (Allergan, Inc., priority 2005, dated 2009):
Where two headings read alike, the source gives them in different places.

Tests used:
normotensive dogs [1] = assay: Ocular surface hyperemia (OSH) in normotensive dogs; format: in vivo, dog; set-up: maximum OSH score: scale not given here; details: dosing once daily for 5 days
Description: (§1) (Z)-7-[(1R,2S,3R,5R)-5-Chloro-2-(3,5-dichloro-phenoxymethyl)-3-hydroxy-cyclopentyl]-hept-5-enoic acid (15b) was tested at multiple concentrations in normotensive dogs, dosing once daily for 5 days. At 0.05%, the maximum IOP decrease from baseline was 4.3 mmHg (30%) at 6 h; the maximum OSH score was 0.6 at 6 h. […] This compound was also tested in laser-induced hypertensive monkeys, using one single day dose. At 0.1%, the maximum IOP decrease from baseline was 6 mmHg (19%) at 6 h.
(§2) (Z)-7-[(1R,2S,3R,5R)-5-Chloro-2-(3,5-dichloro-phenoxymethyl)-3-hydroxy-cyclopentyl]-hept-5-enoic acid isopropyl ester (42b) was tested in normotensive dogs at 0.05%, dosing once daily for 5 days. The maximum intraocular pressure (IOP) decrease from baseline was 3 mmHg (19%) at 6 h; the maximum ocular surface hyperemia (OSH) score was 0.6 at 74 h. This compound was also tested in laser-induced hypertensive monkeys, using one single day dose. At 0.01%, the maximum IOP decrease from baseline was 6 mmHg (16%) at 6 h.

[2] = system: laser-induced hypertensive monkeys; assay: Intraocular pressure (IOP) in laser-induced hypertensive monkeys; format: in vivo, monkey; details: Primates, topical, one single day dose, read-out: maximum IOP decrease from baseline (percent)
Description: as §1, §2

normotensive dogs [3] = assay: Intraocular pressure (IOP) in normotensive dogs; format: in vivo, dog; details: Canis lupus familiaris, topical, 120 h, dosing once daily for 5 days, read-out: maximum IOP decrease from baseline (percent)
hDP/Gqs5 = target: T1, hDP/Gqs5 (Homo sapiens, UniProt Q13258); assay: FLIPR calcium signal, HEK-293(EBNA) cells; format: cell-based
T1 construct: expressed in transfected cells; host or cells: HEK-293(EBNA) cells
T1 sequence (Q13258 1-359): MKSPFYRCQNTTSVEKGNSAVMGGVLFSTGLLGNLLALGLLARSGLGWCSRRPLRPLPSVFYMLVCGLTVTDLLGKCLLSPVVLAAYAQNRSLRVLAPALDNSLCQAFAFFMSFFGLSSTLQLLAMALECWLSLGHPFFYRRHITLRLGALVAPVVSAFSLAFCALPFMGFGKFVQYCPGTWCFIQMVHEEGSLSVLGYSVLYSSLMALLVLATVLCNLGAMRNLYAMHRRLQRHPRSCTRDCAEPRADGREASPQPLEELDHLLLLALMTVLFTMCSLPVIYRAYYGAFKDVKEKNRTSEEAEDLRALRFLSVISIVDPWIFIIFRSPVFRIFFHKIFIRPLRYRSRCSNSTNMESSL
Description: (§3) HEK-293(EBNA) cells, stably expressing one type or subtype of recombinant human prostaglandin receptors (prostaglandin receptors expressed: hDP/Gqs5; hEP1; hEP2/Gqs5; hEP3A/Gqi5; hEP4/Gqs5; hFP; hIP; hTP), were cultured in 100 mm culture dishes in high-glucose DMEM medium containing 10% fetal bovine serum, 2 mM 1-glutamine, 250 μg/ml geneticin (G418) and 200 μg/ml hygromycin B as selection markers, and 100 units/ml penicillin G, 100 μg/ml streptomycin and 0.25 μg/ml amphotericin B.
(§4) Cells were seeded at a density of 5×10^4 cells per well in Biocoat® Poly-D-lysine-coated black-wall, clear-bottom 96-well plates (Becton-Dickinson) and allowed to attach overnight in an incubator at 37° C. Cells were then washed two times with HBSS-HEPES buffer (Hanks Balanced Salt Solution without bicarbonate and phenol red, 20 mM HEPES, pH 7.4) using a Denley Cellwash plate washer (Labsystems). After 45 minutes of dye-loading in the dark, using the calcium-sensitive dye Fluo-4 AM at a final concentration of 2 μM, plates were washed four times with HBSS-HEPES buffer to remove excess dye leaving 100 μl in each well. Plates were re-equilibrated to 37° C. for a few minutes.
(§5) Cells were excited with an Argon laser at 488 nm, and emission was measured through a 510-570 nm bandwidth emission filter (FLIPR™, Molecular Devices, Sunnyvale, Calif.). Drug solution was added in a 50 μl volume to each well to give the desired final concentration. The peak increase in fluorescence intensity was recorded for each well. On each plate, four wells each served as negative (HBSS-HEPES buffer) and positive controls (standard agonists: BW245C (hDP); PGE2 (hEP1; hEP2/Gqs5; hEP3A/Gqi5; hEP4/Gqs5); PGF2. (hFP); carbacyclin (hIP); U-46619 (hTP), depending on receptor). The peak fluorescence change in each drug-containing well was then expressed relative to the controls.
(§6) Compounds were tested in a high-throughput (HTS) or concentration-response (CoRe) format. In the HTS format, forty-four compounds per plate were examined in duplicates at a concentration of 10^−5 M. To generate concentration-response curves, four compounds per plate were tested in duplicates in a concentration range between 10^−5 and 10^−11 M. The duplicate values were averaged. In either, HTS or CoRe format each compound was tested on at least 3 separate plates using cells from different passages to give an n≧3.

hEP2/Gqs5 = target: T2, hEP2/Gqs5 (Homo sapiens, UniProt P43116); assay: FLIPR calcium signal, HEK-293(EBNA) cells; format: cell-based; details: Table 1, first part; triplicate; read-out: functional data (EC50) hEP2
T2 construct: expressed in transfected cells; host or cells: HEK-293(EBNA) cells
T2 sequence (P43116 whole entry): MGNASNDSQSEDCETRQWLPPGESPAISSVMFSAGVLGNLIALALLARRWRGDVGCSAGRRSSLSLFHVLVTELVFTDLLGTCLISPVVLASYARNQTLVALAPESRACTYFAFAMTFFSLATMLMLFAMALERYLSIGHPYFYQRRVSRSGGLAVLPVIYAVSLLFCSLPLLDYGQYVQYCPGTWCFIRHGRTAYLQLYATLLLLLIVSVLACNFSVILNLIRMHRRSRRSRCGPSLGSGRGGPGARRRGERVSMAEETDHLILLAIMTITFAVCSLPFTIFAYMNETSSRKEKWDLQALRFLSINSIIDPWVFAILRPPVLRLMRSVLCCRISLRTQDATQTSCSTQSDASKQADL
Description: as §3, §4, §5, §6

hEP3A/Gqi5 = target: T3, hEP3A/Gqi5 (Homo sapiens, UniProt P43115); assay: FLIPR calcium signal, HEK-293(EBNA) cells; format: cell-based
T3 construct: expressed in transfected cells; host or cells: HEK-293(EBNA) cells
T3 sequence (P43115 1-390): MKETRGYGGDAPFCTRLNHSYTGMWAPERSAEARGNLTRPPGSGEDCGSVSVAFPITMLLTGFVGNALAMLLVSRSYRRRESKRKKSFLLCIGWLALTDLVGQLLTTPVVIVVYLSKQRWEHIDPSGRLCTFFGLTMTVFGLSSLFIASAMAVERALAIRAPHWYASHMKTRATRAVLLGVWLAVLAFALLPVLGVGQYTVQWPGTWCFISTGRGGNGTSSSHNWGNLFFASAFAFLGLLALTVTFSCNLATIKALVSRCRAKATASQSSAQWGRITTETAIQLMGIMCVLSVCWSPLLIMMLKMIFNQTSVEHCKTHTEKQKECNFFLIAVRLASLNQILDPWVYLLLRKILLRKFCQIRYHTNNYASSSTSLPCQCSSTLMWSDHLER
Description: as §3, §4, §5, §6

hEP4/Gqs5 = target: T4, hEP4/Gqs5 (Homo sapiens, UniProt P35408); assay: FLIPR calcium signal, HEK-293(EBNA) cells; format: cell-based
T4 construct: expressed in transfected cells; host or cells: HEK-293(EBNA) cells
T4 sequence (P35408 whole entry): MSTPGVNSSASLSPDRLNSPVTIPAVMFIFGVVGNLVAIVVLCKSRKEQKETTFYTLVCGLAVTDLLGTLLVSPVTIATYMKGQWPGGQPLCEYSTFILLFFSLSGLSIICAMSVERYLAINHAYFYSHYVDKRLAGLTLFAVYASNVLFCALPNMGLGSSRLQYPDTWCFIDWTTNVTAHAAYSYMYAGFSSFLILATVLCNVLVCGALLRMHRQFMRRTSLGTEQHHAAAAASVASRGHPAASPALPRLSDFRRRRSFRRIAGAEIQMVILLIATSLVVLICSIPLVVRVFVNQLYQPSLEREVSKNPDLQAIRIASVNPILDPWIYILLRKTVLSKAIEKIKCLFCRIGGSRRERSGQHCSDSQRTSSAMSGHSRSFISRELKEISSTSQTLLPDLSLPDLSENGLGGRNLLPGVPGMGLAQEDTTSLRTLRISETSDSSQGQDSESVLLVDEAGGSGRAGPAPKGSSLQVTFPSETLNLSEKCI
Description: as §3, §4, §5, §6

hFP = target: T5, hFP (Homo sapiens, UniProt P43088); assay: FLIPR calcium signal, HEK-293(EBNA) cells; format: cell-based
T5 construct: expressed in transfected cells; host or cells: HEK-293(EBNA) cells
T5 sequence (P43088 whole entry): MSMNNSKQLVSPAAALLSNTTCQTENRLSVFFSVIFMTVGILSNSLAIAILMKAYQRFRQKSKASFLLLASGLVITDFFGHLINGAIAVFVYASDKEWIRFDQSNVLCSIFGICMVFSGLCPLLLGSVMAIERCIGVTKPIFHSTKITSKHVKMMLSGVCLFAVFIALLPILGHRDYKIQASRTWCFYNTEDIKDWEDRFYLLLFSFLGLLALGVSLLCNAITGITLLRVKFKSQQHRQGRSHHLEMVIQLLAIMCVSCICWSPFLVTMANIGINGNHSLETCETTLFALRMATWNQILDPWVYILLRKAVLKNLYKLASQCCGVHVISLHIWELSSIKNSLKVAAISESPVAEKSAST
Description: as §3, §4, §5, §6

hTP = target: T6, hTP (Homo sapiens, UniProt P21731); assay: FLIPR calcium signal, HEK-293(EBNA) cells; format: cell-based
T6 construct: expressed in transfected cells; host or cells: HEK-293(EBNA) cells
T6 sequence (P21731 1-343): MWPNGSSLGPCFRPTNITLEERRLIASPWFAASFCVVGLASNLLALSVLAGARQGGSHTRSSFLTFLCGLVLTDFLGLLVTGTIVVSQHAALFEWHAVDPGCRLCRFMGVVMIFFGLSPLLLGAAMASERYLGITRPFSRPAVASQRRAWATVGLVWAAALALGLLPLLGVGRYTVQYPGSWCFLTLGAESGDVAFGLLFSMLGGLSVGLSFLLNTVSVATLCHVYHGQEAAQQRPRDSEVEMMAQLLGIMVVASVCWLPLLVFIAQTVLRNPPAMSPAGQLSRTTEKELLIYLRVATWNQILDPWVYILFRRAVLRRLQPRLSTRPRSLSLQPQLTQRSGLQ
Description: as §3, §4, §5, §6

normotensive dogs [4] = assay: Intraocular pressure (IOP) in normotensive dogs; format: in vivo, dog; details: Canis lupus familiaris, topical, 120 h, 0.1%, dosing once daily for 5 days, read-out: maximum IOP decrease from baseline (percent)
Description: as §1, §2

Structure (SMILES)	maximum OSH score (normotensive dogs [1]; 0.1%)	time of maximum OSH score (normotensive dogs [1]; 0.1%) [h]	inhibition in vivo at 0.1 % (normotensive dogs [4]) [%]	inhibition in vivo at 0.1 % [2] [%]	other results
CC(C)OC(=O)CCC/C=C\C[C@@H]1[C@@H](COc2cc(C(F)(F)F)cc(C(F)(F)F)c2)[C@H](O)C[C@H]1Cl [Example 68, (Z)-7-[(1R,2S,3R,5R)-2-(3,5-Bis-trifluoromethyl-phenoxymethyl)-5-chloro-3-hydroxy-cyclopentyl]-hept-5-enoic acid isopropyl ester]	–	–	–	–	maximum OSH score (normotensive dogs [1]; 0.03%): 0.7; time of maximum OSH score (normotensive dogs [1]; 0.03%): 78 h; inhibition in vivo at 0.03 % ([2]; 0.03%): 11%; inhibition in vivo at 0.03 % (normotensive dogs [3]): 14%
COC(=O)CCC/C=C\C[C@@H]1[C@@H](COc2cc(Cl)cc(Cl)c2)[C@H](O)C[C@H]1Cl [Example 11, (Z)-7-[(1R,2S,3R,5R)-5-Chloro-2-(3,5-dichloro-phenoxymethyl)-3-hydroxy-cyclopentyl]-hept-5-enoic acid methyl ester]	–	–	–	–	EC50 (hDP/Gqs5; Table 1, first part, triplicate, read-out: functional data (EC50) hDP): > 10 µM; EC50 (hDP/Gqs5; Table 1, second part, quantity not given, values match functional data (EC50) of first part, read-out: Other Receptors hDP): > 10 µM; EC50 (hEP2/Gqs5): 0.616 µM; EC50 (hEP3A/Gqi5; Table 1, first part, data represents a single experiment, read-out: functional data (EC50) hEP3A*): 9.87 µM; EC50 (hEP3A/Gqi5; Table 1, second part, quantity not given, values match functional data (EC50) of first part, read-out: Other Receptors hEP3): 9.87 µM; EC50 (hEP4/Gqs5; Table 1, first part, triplicate, read-out: functional data (EC50) hEP4): > 10 µM; EC50 (hEP4/Gqs5; Table 1, second part, read-out: hEP4 flipr EC50): > 10 µM; EC50 (hFP; Table 1, first part, triplicate, read-out: functional data (EC50) hFP): > 10 µM; EC50 (hFP; Table 1, second part, quantity not given, values match functional data (EC50) of first part, read-out: Other Receptors hFP): > 10 µM; EC50 (hTP; Table 1, first part, triplicate, read-out: functional data (EC50) hTP): > 10 µM; EC50 (hTP; Table 1, second part, quantity not given, values match functional data (EC50) of first part, read-out: Other Receptors hTP): > 10 µM
CC(C)OC(=O)CCC/C=C\C[C@@H]1[C@@H](COc2cccc(C(F)(F)F)c2)[C@H](O)C[C@H]1Cl [Example 69, (Z)-7-[(1R,2S,3R,5R)-5-Chloro-3-hydroxy-2-(3-trifluoromethyl-phenoxymethyl)-cyclopentyl]-hept-5-enoic acid isopropyl ester]	0.6	50	19	14	–

Second part, led by results:

maximum OSH score (normotensive dogs [1]; 0.1%)	time of maximum OSH score (normotensive dogs [1]; 0.1%) [h]	Structure (SMILES)	inhibition in vivo at 0.1 % (normotensive dogs [4]) [%]	inhibition in vivo at 0.1 % [2] [%]	other results
1.2	28	Cc1cc(C)cc(OC[C@@H]2[C@@H](C/C=C\CCCC(=O)O)[C@H](Cl)C[C@H]2O)c1 [Example 36, (Z)-7-[(1R,2S,3R,5R)-5-Chloro-2-(3,5-dimethyl-phenoxymethyl)-3-hydroxy-cyclopentyl]-hept-5-enoic acid]	46	25	–
0.5	6	O=C(O)CCC/C=C\C[C@@H]1[C@@H](COc2cccc(C(F)(F)F)c2)[C@H](O)C[C@H]1Cl [Example 24, (Z)-7-[(1R,2S,3R,5R)-5-Chloro-3-hydroxy-2-(3-trifluoromethyl-phenoxymethyl)-cyclopentyl]-hept-5-enoic acid]	16	28	–
0.9	74	Cc1cc(C)cc(OC[C@@H]2[C@@H](C/C=C\CCCC(=O)OC(C)C)[C@H](Cl)C[C@H]2O)c1 [Example 70, (Z)-7-[(1R,2S,3R,5R)-5-Chloro-2-(3,5-dimethyl-phenoxymethyl)-3-hydroxy-cyclopentyl]-hept-5-enoic acid isopropyl ester]	30	23	–
